“And” between values parts separate entries of the source, which are not always exact repeats. Equal values may be shown once. ± gives the uncertainty stated by the source.
Experiment: xn = mol fraction of the nth substance listed

Compound: C1CCOC1 + CN(C)C=O
- viscosity (298.15 K, 101 kPa, x2 = 0.0988): 0.47 ± 0.02 mPa·s
- viscosity (298.15 K, 101 kPa, x2 = 0.1978): 0.482 ± 0.02 mPa·s
- viscosity (298.15 K, 101 kPa, x2 = 0.2971): 0.496 ± 0.021 mPa·s
- viscosity (298.15 K, 101 kPa, x2 = 0.3967): 0.518 ± 0.021 mPa·s
- viscosity (298.15 K, 101 kPa, x2 = 0.4966): 0.547 ± 0.022 mPa·s
- viscosity (298.15 K, 101 kPa, x2 = 0.5967): 0.586 ± 0.024 mPa·s
- viscosity (298.15 K, 101 kPa, x2 = 0.6971): 0.63 ± 0.025 mPa·s
- viscosity (298.15 K, 101 kPa, x2 = 0.7978): 0.679 ± 0.027 mPa·s
- viscosity (298.15 K, 101 kPa, x2 = 0.8988): 0.737 ± 0.029 mPa·s
- viscosity (308.15 K, 101 kPa, x2 = 0.0988): 0.434 ± 0.019 mPa·s
- viscosity (308.15 K, 101 kPa, x2 = 0.1978): 0.444 ± 0.019 mPa·s
- viscosity (308.15 K, 101 kPa, x2 = 0.2971): 0.458 ± 0.02 mPa·s
- viscosity (308.15 K, 101 kPa, x2 = 0.3967): 0.476 ± 0.02 mPa·s
- viscosity (308.15 K, 101 kPa, x2 = 0.4966): 0.502 ± 0.021 mPa·s
- viscosity (308.15 K, 101 kPa, x2 = 0.5967): 0.533 ± 0.022 mPa·s
- viscosity (308.15 K, 101 kPa, x2 = 0.6971): 0.57 ± 0.023 mPa·s
- viscosity (308.15 K, 101 kPa, x2 = 0.7978): 0.614 ± 0.025 mPa·s
- viscosity (308.15 K, 101 kPa, x2 = 0.8988): 0.659 ± 0.026 mPa·s
- viscosity (318.15 K, 101 kPa, x2 = 0.0988): 0.41 ± 0.018 mPa·s
- viscosity (318.15 K, 101 kPa, x2 = 0.1978): 0.431 ± 0.019 mPa·s
- viscosity (318.15 K, 101 kPa, x2 = 0.2971): 0.454 ± 0.019 mPa·s
- viscosity (318.15 K, 101 kPa, x2 = 0.3967): 0.478 ± 0.02 mPa·s
- viscosity (318.15 K, 101 kPa, x2 = 0.4966): 0.502 ± 0.021 mPa·s
- viscosity (318.15 K, 101 kPa, x2 = 0.5967): 0.523 ± 0.022 mPa·s
- viscosity (318.15 K, 101 kPa, x2 = 0.6971): 0.545 ± 0.022 mPa·s
- viscosity (318.15 K, 101 kPa, x2 = 0.7978): 0.568 ± 0.023 mPa·s
- viscosity (318.15 K, 101 kPa, x2 = 0.8988): 0.592 ± 0.024 mPa·s

Compound: C1CCOC1 + CC(C)O
- viscosity (298.15 K, 101 kPa, x1 = 0.05): 1.706 ± 0.018 mPa·s
- viscosity (298.15 K, 101 kPa, x1 = 0.1): 1.445 ± 0.017 mPa·s
- viscosity (298.15 K, 101 kPa, x1 = 0.15): 1.248 ± 0.016 mPa·s
- viscosity (298.15 K, 101 kPa, x1 = 0.2001): 1.113 ± 0.015 mPa·s
- viscosity (298.15 K, 101 kPa, x1 = 0.25): 0.988 ± 0.014 mPa·s
- viscosity (298.15 K, 101 kPa, x1 = 0.3): 0.896 ± 0.014 mPa·s
- viscosity (298.15 K, 101 kPa, x1 = 0.35): 0.812 ± 0.014 mPa·s
- viscosity (298.15 K, 101 kPa, x1 = 0.4): 0.752 ± 0.013 mPa·s
- viscosity (298.15 K, 101 kPa, x1 = 0.45): 0.703 ± 0.013 mPa·s
- viscosity (298.15 K, 101 kPa, x1 = 0.5): 0.659 ± 0.013 mPa·s and 0.6917 ± 0.018 mPa·s
- viscosity (298.15 K, 101 kPa, x1 = 0.55): 0.623 ± 0.013 mPa·s
- viscosity (298.15 K, 101 kPa, x1 = 0.6): 0.594 ± 0.013 mPa·s
- viscosity (298.15 K, 101 kPa, x1 = 0.65): 0.567 ± 0.013 mPa·s
- viscosity (298.15 K, 101 kPa, x1 = 0.7): 0.545 ± 0.013 mPa·s
- viscosity (298.15 K, 101 kPa, x1 = 0.75): 0.526 ± 0.013 mPa·s
- viscosity (298.15 K, 101 kPa, x1 = 0.8): 0.511 ± 0.013 mPa·s
- viscosity (298.15 K, 101 kPa, x1 = 0.85): 0.497 ± 0.013 mPa·s
- viscosity (298.15 K, 101 kPa, x1 = 0.9): 0.488 ± 0.013 mPa·s
- viscosity (298.15 K, 101 kPa, x1 = 0.95): 0.48 ± 0.013 mPa·s
- viscosity (298.15 K, 101 kPa, x2 = 0.1211): 0.49 ± 0.014 mPa·s
- viscosity (298.15 K, 101 kPa, x2 = 0.2273): 0.525 ± 0.014 mPa·s
- viscosity (298.15 K, 101 kPa, x2 = 0.3055): 0.556 ± 0.015 mPa·s
- viscosity (298.15 K, 101 kPa, x2 = 0.3798): 0.587 ± 0.016 mPa·s
- viscosity (298.15 K, 101 kPa, x2 = 0.4846): 0.654 ± 0.018 mPa·s
- viscosity (298.15 K, 101 kPa, x2 = 0.5812): 0.745 ± 0.02 mPa·s
- viscosity (298.15 K, 101 kPa, x2 = 0.6948): 0.899 ± 0.024 mPa·s
- viscosity (298.15 K, 101 kPa, x2 = 0.7237): 0.963 ± 0.025 mPa·s
- viscosity (298.15 K, 101 kPa, x2 = 0.8181): 1.256 ± 0.033 mPa·s
- viscosity (298.15 K, 101 kPa, x2 = 0.9031): 1.571 ± 0.041 mPa·s
- viscosity (298.15 K, 101 kPa, x2 = 0.955): 1.803 ± 0.047 mPa·s
- viscosity (303 K, 101 kPa, x1 = 0.0983): 1.07 ± 0.11 mPa·s
- viscosity (303 K, 101 kPa, x1 = 0.2085): 0.86 ± 0.09 mPa·s
- viscosity (303 K, 101 kPa, x1 = 0.2911): 0.71 ± 0.07 mPa·s
- viscosity (303 K, 101 kPa, x1 = 0.3728): 0.58 ± 0.06 mPa·s
- viscosity (303 K, 101 kPa, x1 = 0.5014): 0.56 ± 0.06 mPa·s
- viscosity (303 K, 101 kPa, x1 = 0.5976): 0.54 ± 0.06 mPa·s
- viscosity (303 K, 101 kPa, x1 = 0.7483): 0.48 ± 0.05 mPa·s
- viscosity (303 K, 101 kPa, x1 = 0.8001): 0.47 ± 0.05 mPa·s
- viscosity (303 K, 101 kPa, x1 = 0.8939): 0.45 ± 0.05 mPa·s
- viscosity (308.15 K, 101 kPa, x1 = 0.05): 1.313 ± 0.016 mPa·s
- viscosity (308.15 K, 101 kPa, x1 = 0.1): 1.142 ± 0.015 mPa·s
- viscosity (308.15 K, 101 kPa, x1 = 0.15): 1.009 ± 0.014 mPa·s
- viscosity (308.15 K, 101 kPa, x1 = 0.2001): 0.909 ± 0.014 mPa·s
- viscosity (308.15 K, 101 kPa, x1 = 0.25): 0.824 ± 0.014 mPa·s
- viscosity (308.15 K, 101 kPa, x1 = 0.3): 0.755 ± 0.013 mPa·s
- viscosity (308.15 K, 101 kPa, x1 = 0.35): 0.697 ± 0.013 mPa·s
- viscosity (308.15 K, 101 kPa, x1 = 0.4): 0.646 ± 0.013 mPa·s
- viscosity (308.15 K, 101 kPa, x1 = 0.45): 0.606 ± 0.013 mPa·s
- viscosity (308.15 K, 101 kPa, x1 = 0.5): 0.576 ± 0.013 mPa·s
- viscosity (308.15 K, 101 kPa, x1 = 0.55): 0.549 ± 0.013 mPa·s
- viscosity (308.15 K, 101 kPa, x1 = 0.6): 0.526 ± 0.013 mPa·s
- viscosity (308.15 K, 101 kPa, x1 = 0.65): 0.507 ± 0.013 mPa·s
- viscosity (308.15 K, 101 kPa, x1 = 0.7): 0.489 ± 0.013 mPa·s
- viscosity (308.15 K, 101 kPa, x1 = 0.75): 0.474 ± 0.013 mPa·s
- viscosity (308.15 K, 101 kPa, x1 = 0.8): 0.461 ± 0.013 mPa·s
- viscosity (308.15 K, 101 kPa, x1 = 0.85): 0.452 ± 0.013 mPa·s
- viscosity (308.15 K, 101 kPa, x1 = 0.9): 0.444 ± 0.012 mPa·s
- viscosity (308.15 K, 101 kPa, x1 = 0.95): 0.44 ± 0.012 mPa·s
- viscosity (313 K, 101 kPa, x1 = 0.0983): 0.86 ± 0.09 mPa·s
- viscosity (313 K, 101 kPa, x1 = 0.2085): 0.7 ± 0.07 mPa·s
- viscosity (313 K, 101 kPa, x1 = 0.2911): 0.61 ± 0.07 mPa·s
- viscosity (313 K, 101 kPa, x1 = 0.3728): 0.54 ± 0.06 mPa·s
- viscosity (313 K, 101 kPa, x1 = 0.5014): 0.48 ± 0.05 mPa·s
- viscosity (313 K, 101 kPa, x1 = 0.5976): 0.46 ± 0.05 mPa·s
- viscosity (313 K, 101 kPa, x1 = 0.7483): 0.45 ± 0.05 mPa·s
- viscosity (313 K, 101 kPa, x1 = 0.8001): 0.43 ± 0.05 mPa·s
- viscosity (313 K, 101 kPa, x1 = 0.8939): 0.43 ± 0.05 mPa·s

Compound: CC1COC(=O)O1 (stereo unspecified) + COC(=O)OC
- viscosity (298.15 K, 101.3 kPa, x2 = 0.0944): 2.217 ± 0.019 mPa·s
- viscosity (298.15 K, 101.3 kPa, x2 = 0.1815): 1.965 ± 0.017 mPa·s
- viscosity (298.15 K, 101.3 kPa, x2 = 0.3215): 1.618 ± 0.014 mPa·s
- viscosity (298.15 K, 101.3 kPa, x2 = 0.4861): 1.287 ± 0.011 mPa·s
- viscosity (298.15 K, 101.3 kPa, x2 = 0.5752): 1.138 ± 0.01 mPa·s
- viscosity (298.15 K, 101.3 kPa, x2 = 0.6827): 0.98 ± 0.008 mPa·s
- viscosity (298.15 K, 101.3 kPa, x2 = 0.7254): 0.924 ± 0.008 mPa·s
- viscosity (298.15 K, 101.3 kPa, x2 = 0.7801): 0.856 ± 0.007 mPa·s
- viscosity (298.15 K, 101.3 kPa, x2 = 0.9012): 0.724 ± 0.006 mPa·s

Compound: CC(C)=O + CC(C)O
- viscosity (298.15 K, 101 kPa, x2 = 0.152): 0.347 ± 0.004 mPa·s
- viscosity (298.15 K, 101 kPa, x2 = 0.161): 0.349 ± 0.004 mPa·s
- viscosity (298.15 K, 101 kPa, x2 = 0.292): 0.389 ± 0.004 mPa·s
- viscosity (298.15 K, 101 kPa, x2 = 0.302): 0.395 ± 0.004 mPa·s
- viscosity (298.15 K, 101 kPa, x2 = 0.452): 0.486 ± 0.005 mPa·s
- viscosity (298.15 K, 101 kPa, x2 = 0.486): 0.507 ± 0.005 mPa·s
- viscosity (298.15 K, 101 kPa, x2 = 0.488): 0.513 ± 0.005 mPa·s
- viscosity (298.15 K, 101 kPa, x2 = 0.661): 0.703 ± 0.006 mPa·s
- viscosity (298.15 K, 101 kPa, x2 = 0.812): 1.071 ± 0.009 mPa·s
- viscosity (298.15 K, 101 kPa, x2 = 0.849): 1.187 ± 0.009 mPa·s

Compound: c1ccc2ccccc2c1 + CC(C)=O
- viscosity (298.15 K, 101 kPa, x1 = 0.1688): 0.487 ± 0.012 mPa·s
- viscosity (298.15 K, 101 kPa, x1 = 0.2356): 0.5618 ± 0.014 mPa·s
- viscosity (303.15 K, 101 kPa, x1 = 0.1688): 0.464 ± 0.012 mPa·s
- viscosity (303.15 K, 101 kPa, x1 = 0.2356): 0.5296 ± 0.013 mPa·s
- viscosity (308.15 K, 101 kPa, x1 = 0.1688): 0.4428 ± 0.011 mPa·s
- viscosity (308.15 K, 101 kPa, x1 = 0.2356): 0.5029 ± 0.013 mPa·s
- viscosity (313.15 K, 101 kPa, x1 = 0.1688): 0.4207 ± 0.011 mPa·s
- viscosity (313.15 K, 101 kPa, x1 = 0.2356): 0.4781 ± 0.012 mPa·s

— the CheMixHub viscosity set
